Values quoted from earlier work, collected in US8309061B2, “Formulations and methods for treating rhinosinusitis” (Dey Pharma, L.P., priority 2003, dated 2012).

solubility in dimethyl sulfoxide and dimethylformamide (dimethyl sulfoxide and dimethylformamide): freely soluble | solubility in methanol and 95% ethanol (methanol and 95% ethanol): slightly soluble | solubility in water (water): practically insoluble
SMILES: CCC(=O)O[C@]1(C(=O)SCF)[C@H](C)C[C@H]2[C@@H]3C[C@H](F)C4=CC(=O)C=C[C@]4(C)[C@@]3(F)[C@@H](O)C[C@@]21C [Fluticasone propionate, S-(fluromethyl)6α,9-difluoro-11β-17-dihydroxy-16α-methyl-3-oxoandrosta-1,4-diene-17β-carbothioate, 17-propionate]
